Experimental data published in the NIST ThermoML archive (doi:10.1007/s10765-008-0535-5).
± gives the expanded uncertainty stated by the source.

Test: molar heat capacity at constant volume; wn = mass fraction of the nth substance listed
Details: Liquid, Vacuum adiabatic calorimetry, w2 = 0.5111

FC(F)C(F)(F)F [pentafluoroethane] + FCF
Details	molar heat capacity at constant volume [J/K/mol]
268.15 K, 3423 kPa	62.96 ± 2
269.15 K, 4259 kPa	64.11 ± 2.1
270.15 K, 5065 kPa	63.82 ± 2.1
270.15 K, 5095 kPa	63.25 ± 2
270.15 K, 5157 kPa	63.82 ± 2.1
271.15 K, 5903 kPa	64.9 ± 2.1
271.15 K, 5931 kPa	64.04 ± 2.1
271.15 K, 5992 kPa	62.96 ± 2
272.15 K, 6740 kPa	64.18 ± 2.1
272.15 K, 6767 kPa	64.61 ± 2.1
272.15 K, 6828 kPa	63.25 ± 2
273.15 K, 7576 kPa	64.54 ± 2.1
273.15 K, 7602 kPa	63.82 ± 2.1
273.15 K, 7662 kPa	64.04 ± 2.1
274.15 K, 8411 kPa	65.12 ± 2.1
274.15 K, 8437 kPa	65.19 ± 2.1
274.15 K, 8496 kPa	63.82 ± 2.1
275.15 K, 9245 kPa	64.9 ± 2.1
275.15 K, 9272 kPa	64.9 ± 2.1
275.15 K, 9328 kPa	63.75 ± 2.1
276.15 K, 10082 kPa	65.77 ± 2.1
276.15 K, 10107 kPa	64.83 ± 2.1
276.15 K, 10161 kPa	64.25 ± 2.1
277.15 K, 10917 kPa	65.84 ± 2.1
277.15 K, 10942 kPa	65.62 ± 2.1
277.15 K, 10993 kPa	65.05 ± 2.1
278.15 K, 11753 kPa	66.05 ± 2.2
278.15 K, 11776 kPa	65.55 ± 2.1
278.15 K, 11824 kPa	64.4 ± 2.1
279.15 K, 12587 kPa	65.69 ± 2.1
279.15 K, 12611 kPa	66.12 ± 2.2
279.15 K, 12657 kPa	65.33 ± 2.1
280.15 K, 13423 kPa	66.92 ± 2.2
280.15 K, 13444 kPa	65.12 ± 2.1
280.15 K, 13488 kPa	64.9 ± 2.1
281.15 K, 14258 kPa	65.69 ± 2.1
281.15 K, 14277 kPa	66.63 ± 2.2
281.15 K, 14319 kPa	65.69 ± 2.1
282.15 K, 15091 kPa	66.92 ± 2.2
282.15 K, 15110 kPa	66.27 ± 2.2
282.15 K, 15148 kPa	65.55 ± 2.1
283.15 K, 15926 kPa	66.63 ± 2.2
283.15 K, 15943 kPa	66.05 ± 2.2
283.15 K, 15978 kPa	64.76 ± 2.1
284.15 K, 16759 kPa	66.56 ± 2.2
284.15 K, 16775 kPa	66.34 ± 2.2
284.15 K, 16808 kPa	66.05 ± 2.2
285.15 K, 17592 kPa	67.2 ± 2.2
285.15 K, 17606 kPa	67.06 ± 2.2
285.15 K, 17637 kPa	65.77 ± 2.2
286.15 K, 18423 kPa	66.77 ± 2.2
286.15 K, 18437 kPa	66.7 ± 2.2
286.15 K, 18467 kPa	66.41 ± 2.2
287.15 K, 19253 kPa	66.2 ± 2.2
287.15 K, 19268 kPa	66.7 ± 2.2
287.15 K, 19297 kPa	65.19 ± 2.1
288.15 K, 20083 kPa	67.35 ± 2.2
288.15 K, 20097 kPa	67.28 ± 2.2
288.15 K, 20124 kPa	66.05 ± 2.2
289.15 K, 20914 kPa	67.35 ± 2.2
289.15 K, 20926 kPa	66.7 ± 2.2
289.15 K, 20951 kPa	66.27 ± 2.2
290.15 K, 21743 kPa	67.49 ± 2.2
290.15 K, 21755 kPa	67.28 ± 2.2
290.15 K, 21778 kPa	66.12 ± 2.2
291.15 K, 22571 kPa	67.28 ± 2.2
291.15 K, 22583 kPa	66.7 ± 2.2
291.15 K, 22607 kPa	66.05 ± 2.2
292.15 K, 23400 kPa	67.35 ± 2.2
292.15 K, 23410 kPa	67.35 ± 2.2
292.15 K, 23433 kPa	66.63 ± 2.2
293.15 K, 24226 kPa	67.13 ± 2.2
293.15 K, 24236 kPa	67.06 ± 2.2
293.15 K, 24257 kPa	66.2 ± 2.2
294.15 K, 25053 kPa	67.42 ± 2.2
294.15 K, 25062 kPa	67.42 ± 2.2
294.15 K, 25082 kPa	67.28 ± 2.2
295.15 K, 25878 kPa	66.84 ± 2.2
295.15 K, 25887 kPa	67.13 ± 2.2
295.15 K, 25903 kPa	65.05 ± 2.1
296.15 K, 5585 kPa	69.44 ± 2.2
296.15 K, 5620 kPa	68.57 ± 2.2
296.15 K, 5667 kPa	65.84 ± 2.2
296.15 K, 26704 kPa	67.92 ± 2.2
296.15 K, 26711 kPa	66.99 ± 2.2
296.15 K, 26725 kPa	66.48 ± 2.2
297.15 K, 6213 kPa	68.72 ± 2.2
297.15 K, 6246 kPa	68.86 ± 2.2
297.15 K, 6292 kPa	68.14 ± 2.2
297.15 K, 27528 kPa	67.28 ± 2.2
297.15 K, 27534 kPa	66.63 ± 2.2
297.15 K, 27546 kPa	66.2 ± 2.2
298.15 K, 6841 kPa	70.08 ± 2.2
298.15 K, 6872 kPa	68.28 ± 2.2
298.15 K, 6917 kPa	67.78 ± 2.2
298.15 K, 28352 kPa	66.99 ± 2.2
298.15 K, 28357 kPa	66.84 ± 2.2
